The compounds below were run on HCV 1b genotype replicon (assay: HCV replicon assay (qRT-PCR or luciferase), genotype 1b). Conditions: Hepatitis C virus, read-out: Genotype-1b replicon EC50 Range.
Format: cell-based
Source text: HCV replicon cell lines (kindly provided by R. Bartenschlager) isolated from colonies as described by Lohman et. al. (Lohman et al. (1999) Science 285: 110-113, expressly incorporated by reference in its entirety) and used for all experiments. The HCV replicon has the nucleic acid sequence set forth in EMBL Accession No.: AJ242651, the coding sequence of which is from nucleotides 1801 to 8406.
The coding sequence of the published HCV replicon was synthesized and subsequently assembled in a modified plasmid pBR322 (Promega, Madison, Wis.) using standard molecular biology techniques. One replicon cell line (“SGR 11-7”) stably expresses HCV replicon RNA which consists of (i) the HCV 5′UTR fused to the first 12 amino acids of the capsid protein, (ii) the neomycin phosphotransferase gene (neo), (iii) the IRES from encephalomyocarditis virus (EMCV), and (iv) HCV NS2 to NS5B genes and the HCV 3′UTR. Another replicon cell line (“Huh-luc/neo-ET”) described by Vrolijk et. al. (Vrolijk et. al. (2003) Journal of Virological Methods 110:201-209, expressly incorporated by reference in its entirety) stably expresses HCV replicon RNA which consists of (i) the HCV 5′UTR fused to the first 12 amino acids of the capsid protein, (ii) the firefly luciferase reporter gene, (iii) the ubiquitin gene, (iv) the neomycin phosphotransferase gene (neo), (v) the IRES from encephalomyocarditis virus (EMCV), and (vi) HCV NS3 to NS5B genes that harbor cell culture adaptive mutations (E1202G, T12801, K1846T) and the HCV 3′UTR.
These cell lines were maintained at 37° C., 5% CO2, 100% relative humidity in DMEM (Cat#11965-084, Invitrogen), with 10% fetal calf serum (“FCS”, Invitrogen), 1% non-essential amino acids (Invitrogen), 1% of Glutamax (Invitrogen), 1% of 100× penicillin/streptomycin (Cat#15140-122, Invitrogen) and Geneticin (Cat#10131-027, Invitrogen) at 0.75 mg/ml or 0.5 mg/ml for 11-7 and Huh-luc/neo-ET cells, respectively.
EC50 values of single agent compounds and combinations were determined by HCV RNA detection using quantitative RT-PCR, according to the manufacturer's instructions, with a TAQMAN® One-Step RT-PCR Master Mix Reagents Kit (Cat# AB 4309169, Applied Biosystems) on an ABI Model 7500 thermocycler. The TaqMan primers used for detecting and quantifying HCV RNA were obtained from Integrated DNA Technologies. HCV RNA was normalized to GAPDH RNA levels in drug-treated cells, which was detected and quantified using the Human GAPDH Endogenous Control Mix (Applied Biosystems, AB 4310884E). Total cellular RNA was purified from 96-well plates using the RNAqueous 96 kit (Ambion, Cat#AM1812). Chemical agent cytotoxicity was evaluated using an MTS assay according to the manufacturer's directions (Promega).
Since clinical drug resistance often develops in viral infections following single agent therapies, there is a need to assess the additive, antagonistic, or synergistic properties of combination therapies. We use the HCV replicon system to assess the potential use of the compound of the present invention or in combination therapies with Interferon alpha, cyclosporine analogs and inhibitors targeting other HCV proteins. The acute effects of a single or combinations of drugs are studied in the “Huh-luc/neo-ET” replicon with each chemical agent titrated in an X or Y direction in a 6 point two-fold dilution curve centered around the EC50 of each drug. Briefly, replicon cells are seeded at 7,000 cells per well in 90 ul DMEM (without phenol red, Invitrogen Cat.#31053-036) per well with 10% FCS, 1% non-essential amino acids, 1% of Glutamax and 1% of 100× penicillin/streptomycin and incubated overnight at 37° C., 5% CO2, 100% relative humidity. […]

**Q.** How did the EC50 turn out when COC(=O)N[C@H](C(=O)N[C@H]1CCC[C@@H]1Nc1ncc(-c2ccc3cc(-c4c[nH]c([C@@H]5CCCN5C(=O)[C@@H](NC(=O)OC)C(C)C)n4)ccc3c2)cn1)C(C)C (racemic) [373a and 373b] was run?
**A.** < 0.001 µM

**Q.** COC(=O)N[C@H](C(=O)N1CCC[C@H]1CNc1ncc(-c2ccc3cc(-c4c[nH]c([C@@H]5CCCN5C(=O)[C@@H](NC(=O)OC)C(C)C)n4)ccc3c2)cn1)C(C)C [Example 83] was tested. Which EC50 did it give?
**A.** > 0.01 µM

**Q.** COC(=O)N[C@H](C(=O)N1CCC[C@H]1CNc1ncc2cc(-c3ccc(-c4c[nH]c([C@@H]5CCCN5C(=O)[C@@H](NC(=O)OC)C(C)C)n4)cc3)ccc2n1)C(C)C [Example 294] was tested. Which EC50 did it give?
**A.** < 0.001 µM

**Q.** For COC(=O)N[C@H](C(=O)N1CCC[C@H]1CNc1ccc(-c2ccc3cc(-c4c[nH]c([C@@H]5CCCN5C(=O)[C@@H](NC(=O)OC)C(C)C)n4)ccc3c2)cn1)C(C)C [Example 296], which EC50 is on record?
**A.** < 0.001 µM

**Q.** For COC(=O)N[C@H](C(=O)N1CCC[C@H]1CNc1nc2ccc(-c3ccc(-c4c[nH]c([C@@H]5CCCN5C(=O)[C@@H](NC(=O)OC)C(C)C)n4)cc3)cc2s1)C(C)C [Example 305], which EC50 is on record?
**A.** < 0.001 µM

**Q.** Which EC50 does the source give for COC(=O)N[C@H](C(=O)N1CCC[C@H]1CNc1ncc(C#Cc2ccc3nc([C@@H]4CCCN4C(=O)[C@@H](NC(=O)OC)C(C)C)[nH]c3c2)cn1)C(C)C [Example 313] here?
**A.** > 0.01 µM

**Q.** COC(=O)N[C@H](C(=O)N1CCC[C@H]1CNc1ncc2cc(C#Cc3ccc4[nH]c([C@@H]5CCCN5C(=O)[C@@H](NC(=O)OC)C(C)C)nc4c3)ccc2n1)C(C)C [Example 322] was tested. Which EC50 did it give?
**A.** 0.001 to 0.01 µM

**Q.** With COC(=O)N[C@H](C(=O)N1CCC[C@H]1CNc1ncc(-c2ccc(-c3cnc(NC[C@@H]4CCCN4C(=O)[C@@H](NC(=O)OC)C(C)C)nc3)cc2)cn1)C(C)C [Example 370] as the compound, how does the EC50 read?
**A.** > 0.01 µM

**Q.** With COC(=O)N[C@H](C(=O)N1CCC[C@H]1CNc1nc2ccc(-c3ccc4nc(NC[C@@H]5CCCN5C(=O)[C@@H](NC(=O)OC)C(C)C)sc4c3)cc2s1)C(C)C [Example 377] as the compound, how does the EC50 read?
**A.** > 0.01 µM

**Q.** How did the EC50 turn out when COC(=O)N[C@H](C(=O)N1CCC(Nc2ncc(-c3ccc4cc(-c5c[nH]c([C@@H]6CCCN6C(=O)[C@@H](NC(=O)OC)C(C)C)n5)ccc4c3)cn2)C1)C(C)C (stereo partly shown) [Example 382] was run?
**A.** 0.001 to 0.01 µM

**Q.** With COC(=O)N[C@H](C(=O)N1CCC(Nc2ncc(-c3ccc(-c4c[nH]c([C@@H]5CCCN5C(=O)[C@@H](NC(=O)OC)C(C)C)n4)cc3)cn2)C1)C(C)C (stereo partly shown) [Example 384] as the compound, how does the EC50 read?
**A.** 0.001 to 0.01 µM

**Q.** COC(=O)N[C@H](C(=O)N1CCC[C@H]1CNc1nc2ccc(-c3ccc4cc(-c5c[nH]c([C@@H]6CCCN6C(=O)[C@@H](NC(=O)OC)C(C)C)n5)ccc4c3)cc2s1)C(C)C [Example 386] was tested. Which EC50 did it give?
**A.** < 0.001 µM

**Q.** CCC(CNc1ncc(-c2ccc3cc(-c4c[nH]c([C@@H]5CCCN5C(=O)[C@@H](NC(=O)OC)C(C)C)n4)ccc3c2)cn1)NC(=O)[C@@H](NC(=O)OC)C(C)C (stereo partly shown) [Example 388] was tested. Which EC50 did it give?
**A.** > 0.01 µM

**Q.** For CCC(CNc1ncc(-c2ccc3cc(-c4c[nH]c([C@@H]5CCCN5C(=O)[C@@H](NC(=O)OC)C(C)C)n4)ccc3c2)cn1)N(C)C(=O)[C@@H](NC(=O)OC)C(C)C (stereo partly shown) [Example 390], which EC50 is on record?
**A.** 0.001 to 0.01 µM

**Q.** Which EC50 does the source give for COC(=O)N[C@H](C(=O)N1CCC[C@@H]1CNc1ncc(-c2ccc3cc(-c4cnc([C@@H]5CCCN5C(=O)[C@@H](NC(=O)OC)C(C)C)[nH]4)ccc3c2)cn1)C(C)C [Example 393] here?
**A.** 0.001 to 0.01 µM

**Q.** Which EC50 does the source give for COC(=O)N[C@H](C(=O)N1CCC[C@H]1CNc1ncc(C#Cc2ccc(-c3cnc([C@@H]4CCCN4C(=O)[C@@H](NC(=O)OC)C(C)C)[nH]3)cc2)cn1)C(C)C [Example 394] here?
**A.** > 0.01 µM

Source: US8759332B2, “Hepatitis C virus inhibitors” (Enanta Pharmaceuticals, Inc., priority 2009, dated 2014)
